Source: BindingDB's records for patent US20250136608 (Cgenetech (Suzhou, China) Co., 2025)

Legend:
[1] = target: T1, Tyrosine-protein kinase JAK3 (Homo sapiens, UniProt P52333); assay: JAK3 Kinase Inhibitory Activity Assay
T1 sequence (P52333 whole entry): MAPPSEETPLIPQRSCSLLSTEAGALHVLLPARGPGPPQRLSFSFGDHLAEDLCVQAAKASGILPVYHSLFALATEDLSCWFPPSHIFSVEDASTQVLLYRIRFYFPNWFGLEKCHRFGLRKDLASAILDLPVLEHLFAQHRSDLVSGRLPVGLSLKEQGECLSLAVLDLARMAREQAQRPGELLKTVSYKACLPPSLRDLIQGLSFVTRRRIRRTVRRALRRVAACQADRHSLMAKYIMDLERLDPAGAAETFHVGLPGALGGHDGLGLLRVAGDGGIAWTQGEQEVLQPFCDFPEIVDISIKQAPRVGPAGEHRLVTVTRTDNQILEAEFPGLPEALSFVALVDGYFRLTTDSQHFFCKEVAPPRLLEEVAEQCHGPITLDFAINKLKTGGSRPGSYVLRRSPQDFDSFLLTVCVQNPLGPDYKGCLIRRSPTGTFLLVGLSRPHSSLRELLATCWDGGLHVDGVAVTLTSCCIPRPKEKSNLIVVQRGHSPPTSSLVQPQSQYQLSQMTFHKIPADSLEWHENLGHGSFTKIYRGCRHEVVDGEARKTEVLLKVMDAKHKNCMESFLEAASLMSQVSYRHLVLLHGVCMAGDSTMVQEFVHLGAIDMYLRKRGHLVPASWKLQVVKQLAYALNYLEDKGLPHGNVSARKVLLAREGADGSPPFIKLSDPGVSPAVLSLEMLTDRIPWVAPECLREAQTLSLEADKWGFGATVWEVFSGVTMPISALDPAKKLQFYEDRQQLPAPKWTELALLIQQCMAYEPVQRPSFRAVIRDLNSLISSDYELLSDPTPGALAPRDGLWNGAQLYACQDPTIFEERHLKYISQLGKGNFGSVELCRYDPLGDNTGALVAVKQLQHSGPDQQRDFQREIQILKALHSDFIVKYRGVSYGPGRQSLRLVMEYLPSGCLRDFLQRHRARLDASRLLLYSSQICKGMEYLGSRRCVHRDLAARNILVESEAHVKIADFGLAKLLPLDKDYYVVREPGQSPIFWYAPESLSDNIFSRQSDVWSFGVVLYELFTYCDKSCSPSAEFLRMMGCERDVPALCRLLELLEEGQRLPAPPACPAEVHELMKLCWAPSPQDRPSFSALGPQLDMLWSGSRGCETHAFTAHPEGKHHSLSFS

[2] = target: Tyrosine-protein kinase JAK2 (Homo sapiens, UniProt O60674); assay: JAK2 Kinase Inhibitory Activity Assay
Tyrosine-protein kinase JAK2, sequence (O60674 whole entry): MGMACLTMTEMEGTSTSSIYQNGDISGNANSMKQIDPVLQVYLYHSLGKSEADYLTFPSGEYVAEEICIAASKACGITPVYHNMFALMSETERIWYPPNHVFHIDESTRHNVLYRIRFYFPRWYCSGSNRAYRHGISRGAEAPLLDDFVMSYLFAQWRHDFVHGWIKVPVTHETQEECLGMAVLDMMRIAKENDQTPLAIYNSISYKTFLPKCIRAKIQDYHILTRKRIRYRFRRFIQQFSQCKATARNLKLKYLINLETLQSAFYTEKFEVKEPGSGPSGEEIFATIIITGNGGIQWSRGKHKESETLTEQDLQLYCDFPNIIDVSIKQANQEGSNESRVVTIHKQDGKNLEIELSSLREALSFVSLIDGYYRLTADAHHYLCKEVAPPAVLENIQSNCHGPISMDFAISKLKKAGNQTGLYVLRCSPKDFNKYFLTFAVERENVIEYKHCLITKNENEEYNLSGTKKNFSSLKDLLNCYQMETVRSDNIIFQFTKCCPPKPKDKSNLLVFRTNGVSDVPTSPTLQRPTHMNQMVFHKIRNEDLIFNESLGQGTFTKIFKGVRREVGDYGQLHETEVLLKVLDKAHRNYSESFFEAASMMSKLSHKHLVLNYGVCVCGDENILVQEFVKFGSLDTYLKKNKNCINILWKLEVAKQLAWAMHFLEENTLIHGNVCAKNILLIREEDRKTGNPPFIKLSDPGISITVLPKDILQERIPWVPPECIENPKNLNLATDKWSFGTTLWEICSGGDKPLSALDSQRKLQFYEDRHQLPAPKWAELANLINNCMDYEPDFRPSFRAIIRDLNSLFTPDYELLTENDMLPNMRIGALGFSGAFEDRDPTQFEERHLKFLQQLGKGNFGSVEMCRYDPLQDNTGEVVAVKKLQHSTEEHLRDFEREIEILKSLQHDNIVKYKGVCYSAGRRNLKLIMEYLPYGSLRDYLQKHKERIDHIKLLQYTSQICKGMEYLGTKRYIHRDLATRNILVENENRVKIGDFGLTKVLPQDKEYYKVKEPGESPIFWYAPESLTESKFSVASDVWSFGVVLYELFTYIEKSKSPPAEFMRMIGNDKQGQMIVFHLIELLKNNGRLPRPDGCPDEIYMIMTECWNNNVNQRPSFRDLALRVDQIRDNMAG

Q: With `N#CCC1(n2cc(-c3ncnc4[nH]ccc34)cn2)CCC(F)(F)CC1` [US20250136608, Compound 1] as the compound, how does the IC50 [1] read?
A: 241 nM

Q: What about the IC50 [2] of the same compound?
A: 2.8 nM
